Consider 4 compounds from patent US5089516A, “1-phenyl-3,5-pyrazolidinedione hydroxystyrene compounds which have tyrosine kinase inhibiting activity” (Kanegafuchi Kagaku Kogyo Kabushiki Kaisha, priority 1987, dated 1992).

The assay relates to antigen-induced anaphylactic shock death. The assay is described as follows: Protecting effect against antigen-induced anaphylactic shock death in actively sensitized guinea pigs. The note with it: Cavia porcellus, 1.5 h, oral, 30 minutes before antigen inhalation. The class given is in vivo, male guinea pigs. The procedure: (2) Protecting effect against antigen-induced anaphylactic shock death in actively sensitized guinea pigs
Anaphylactic shock death caused by inhalation of antigen was observed according to John P. Devlin Pulmonary and Antiallergic Drugs, John Wiley & Sons, (1985)] employing actively sensitized guinea pigs.
Each 100 mg/kg of body weight ovalbumin dissolved in physiological saline was injected into gluteus and into peritoneal cavity of male guinea pigs weighing 250 to 350 g. Three days later, the animals were further injected intraperitoneally with ovalbumin (100 mg/kg body weight) to conduct booster. Those animals were employed for testing 3 to 4 weeks after the sensitization.
In each group, 4 or more actively sensitized guinea pigs were pretreated by subcutaneously injecting pyrilamine (1 mg/kg body weight) 30 minutes before antigen inhalation to suppress histamine-dependent response and propranolol (1 mg/kg body weight) to enhance the response induced by other than histamine 10 minutes before the antigen inhalation.
The animal was placed in a desiccator with a capacity of about […] and 0.5% aqueous solution of ovalbumin in the state of aerosol was inhaled with ultrasonic type nebulizer for five minutes. Anaphylactic shock death was observed and the animals survived for 90 minutes or more after antigen inhalation were estimated to be protected. All the animals of the control group died due to anaphylactic shock. The compounds of the present invention and therapeutic antiasthmatic agent (tranilast, theophylline) were administered orally 30 minutes before the antigen inhalation.

Regarding `CC(C)c1cc(C=C2SC(NCc3ccc(Cl)c(Cl)c3)=NC2=O)cc(C(C)C)c1O` [Compound 37], the responders at 100 mg/kg was 25%. Regarding `Cc1ccc(CNC2=NC(=O)C(=Cc3cc(C(C)C)c(O)c(C(C)C)c3)S2)cc1` [Compound 39], the responders at 100 mg/kg is 25%. For the compound `CC(C)c1cc(C=C2SC(NCc3ccc(F)cc3)=NC2=O)cc(C(C)C)c1O` [Compound 35], the responders at 10 mg/kg is 50%. With `CC(C)c1cc(C=C2SC(NCc3ccc(S(N)(=O)=O)cc3)=NC2=O)cc(C(C)C)c1O` [Compound 41], the responders at 10 mg/kg is 25%.
